Earlier results in paper PMC9747611 (Hypertension Research, 2022).

System: aldosterone synthase
Settings: cited from earlier work

Q: For `N#Cc1ccc([C@H]2CCc3cncn32)c(F)c1` [LCI699], which “increase in 11-deoxycorticosterone levels” value is on record?
A: up to 10 fold
